Data from patent US20090062388A1, “Use of acetyl L-carnitine for the preparation of a medication for the preventive therapy for pain” (Sigma-Tau Industrie Farmaceutiche Riunite S.p.A., priority 2001, published 2009).
Where two headings read alike, the source gives them in different places.

Tests used:
Male Swiss Webster mice [1] = assay: Hot-plate test (thermal stimulus), licking latency; type: in vivo
Description: The first experiment was the hot-plate test.
Male Swiss Webster mice weighing between 22 and 30 g were used.
The test was carried out according to O'Callaghan and Holtzman in J. Pharmacol. Exp. Ther. 197: 533-537, 1976.
According to this test, a stainless steel container is to be placed in a bain-marie at a temperature of 52.5° C.
The mouse was removed from the hot plate immediately upon the first sign of painful stimulus. The maximum latency time registered on the hot plate was 45 seconds.
The values of analgesia were determined at 15 minute-intervals.

Male Swiss Webster mice [2] = assay: Abdominal constriction test (acetic acid IP); type: in vivo; details: for Number of constrictions (0.3% acetic acid) / Number of constrictions (0.6% acetic acid): 3 mg/ml in drinking water
Description: The second experiment was the abdominal constriction test.
The abdominal constriction test was carried out according to Koster et al. in Fed. Proc. 18: 412, 1959.
According to this test, an IP injection of 0.6% acetic acid solution is to be made 5 minutes before starting the observation, which lasted 10 minutes.
In some experiments, the percentage of acetic acid was reduced by half (0.3%).

mice = type: in vivo; details: Acetyl L-carnitine 100 mg/kg BID SC 7 days
Description: The analgesia induced by the acetyl L-carnitine (100 mg/kg BID, SC for 7 days) was determined in presence of some antagonists of some neurotransmission systems deeply involved in the regulation of pain threshold, and in particular the naloxone (opioid antagonist), the CGP-35348 (GABAB antagonist) and the alpha-methyl-p-tyrosine (inhibitor of the synthesis of cathecolamines).
In agreement with the standard procedures known by the person skilled in the art, the doses used for any antagonist were the minimum required to prevent the analgesia induced by morphine (7 mg/kg SC) (1, 100 e 200 mg/kg IP), baclofen (4 mg/kg SC) and amphetamine (1 mg/kg SC) (non-reported data) respectively.

[3] = system: M1 muscarinic receptor sub-type; assay: Hot plate: acetyl L-carnitine analgesia after anti-M1 antisense oligonucleotide ICV; type: in vivo, mice; details: Acetyl L-carnitine 100 mg/kg BID SC 7 days
Excerpt: The observation that the analgesia induced by the acetyl L-carnitine is mediated by the M1 muscarinic receptor sub-type is confirmed by the application of the anti-sense strategy.

[4] = solution 3 mg/ml in bottle for 7 and 14 days

CC(=O)O[C@H](CC(=O)[O-])C[N+](C)(C)C [Acetyl L-carnitine, acetyl L-carnitine]
Hot plate Licking latency (Male Swiss Webster mice [1]; single SC treatment 100 mg/kg, before treatment): 14.5 ± 0.9 s | pain threshold in hot-plate test (Male Swiss Webster mice [1]; [4]): no increase in the pain threshold was observed | Number of constrictions (0.3% acetic acid) (Male Swiss Webster mice [2]; sub-chronic treatment 7 days): 12.7 ± 3.5 | Number of constrictions (0.6% acetic acid) (Male Swiss Webster mice [2]; sub-chronic treatment 7 days): 31.5 ± 4.0 | Number of constrictions (0.3% acetic acid) (Male Swiss Webster mice [2]; sub-chronic treatment 14 days): 11.9 ± 2.2 | Number of constrictions (0.6% acetic acid) (Male Swiss Webster mice [2]; sub-chronic treatment 14 days): 28.3 ± 5.1 | antinociceptive effect, abdominal constriction test (Male Swiss Webster mice [2]; 0.6% acetic acid, 30 mg/kg IP (or SC), 18-day treatment (FIG. 3)): had no effect | antinociceptive effect, abdominal constriction test (Male Swiss Webster mice [2]; 0.6% acetic acid, 100 mg/kg BID, SC or IP, 14 days of treatment (FIG. 1)): exerted an antinociceptive effect | antinociceptive effect, abdominal constriction test (Male Swiss Webster mice [2]; 0.6% acetic acid, 100 mg/kg acute administration (SC or IP) or repeated for 7 days (FIG. 1)): had no effect at all | antinociceptive effect, abdominal constriction test (Male Swiss Webster mice [2]; small concentration of acid, 30 mg/kg, 14 days (FIG. 4)): the statistic significance was obtained after 14 days | pain threshold in abdominal constriction test (0.3 and 0.6%) (Male Swiss Webster mice [2]; [4]): no increase in the pain threshold was observed | Hot plate Licking latency (mice; pre-treat. Alpha-M-p-T 200 mg/kg, after treatment 15 min): 22.5 ± 2.0 s | Hot plate Licking latency (mice; pre-treat. Alpha-M-p-T 200 mg/kg, after treatment 30 min): 21.5 ± 1.7 s | Hot plate Licking latency (mice; pre-treat. Alpha-M-p-T 200 mg/kg, after treatment 45 min): 21.6 ± 1.5^ sec | Hot plate Licking latency (mice; pre-treat. Alpha-M-p-T 200 mg/kg, before treatment): 22.0 ± 1.3 s | Hot plate Licking latency (mice; pre-treat. Atropine 5 mg/kg, after treatment 15 min): 11.4 ± 1.7° sec | Hot plate Licking latency (mice; pre-treat. Atropine 5 mg/kg, after treatment 30 min): 12.6 ± 1.9° sec | Hot plate Licking latency (mice; pre-treat. Atropine 5 mg/kg, after treatment 45 min): 12.8 ± 1.3° sec | Hot plate Licking latency (mice; pre-treat. Atropine 5 mg/kg, before treatment): 21.2 ± 1.0^ sec | Hot plate Licking latency (mice; pre-treat. CGP 35348 100 mg/kg, after treatment 15 min): 21.1 ± 1.2^ sec | Hot plate Licking latency (mice; pre-treat. CGP 35348 100 mg/kg, after treatment 30 min): 21.0 ± 2.1^ sec | Hot plate Licking latency (mice; pre-treat. CGP 35348 100 mg/kg, after treatment 45 min): 20.3 ± 1.9^ sec | Hot plate Licking latency (mice; pre-treat. CGP 35348 100 mg/kg, before treatment): 22.1 ± 0.7 s | Hot plate Licking latency (mice; pre-treat. HC-3 1 μg ICV, after treatment 15 min): 14.6 ± 1.3° sec | Hot plate Licking latency (mice; pre-treat. HC-3 1 μg ICV, after treatment 30 min): 14.0 ± 1.8° sec | Hot plate Licking latency (mice; pre-treat. HC-3 1 μg ICV, after treatment 45 min): 15.5 ± 1.9° sec | Hot plate Licking latency (mice; pre-treat. HC-3 1 μg ICV, before treatment): 22.0 ± 1.1^ sec | Hot plate Licking latency (mice; pre-treat. Naloxone 1 mg/kg, after treatment 15 min): 22.3 ± 1.9 s | Hot plate Licking latency (mice; pre-treat. Naloxone 1 mg/kg, after treatment 30 min): 22.1 ± 2.0 s | Hot plate Licking latency (mice; pre-treat. Naloxone 1 mg/kg, after treatment 45 min): 20.6 ± 1.2^ sec | Hot plate Licking latency (mice; pre-treat. Naloxone 1 mg/kg, before treatment): 22.6 ± 0.6 s | Hot plate Licking latency (mice; pre-treat. Pirenzepine 0.1 μg ICV, after treatment 15 min): 16.5 ± 1.8° sec | Hot plate Licking latency (mice; pre-treat. Pirenzepine 0.1 μg ICV, after treatment 30 min): 14.3 ± 2.0° sec | Hot plate Licking latency (mice; pre-treat. Pirenzepine 0.1 μg ICV, after treatment 45 min): 17.1 ± 1.6° sec | Hot plate Licking latency (mice; pre-treat. Pirenzepine 0.1 μg ICV, before treatment): 21.6 ± 1.3^ sec | Hot plate Licking latency (mice; pre-treat. S-(−)-ET-126 0.1 μg ICV, after treatment 15 min): 15.8 ± 2.2° sec | Hot plate Licking latency (mice; pre-treat. S-(−)-ET-126 0.1 μg ICV, after treatment 30 min): 16.9 ± 2.3° sec | Hot plate Licking latency (mice; pre-treat. S-(−)-ET-126 0.1 μg ICV, after treatment 45 min): 15.8 ± 1.8° sec | Hot plate Licking latency (mice; pre-treat. S-(−)-ET-126 0.1 μg ICV, before treatment): 22.9 ± 1.3^ sec | Hot plate Licking latency (mice; pre-treat. physiological solution 10 ml/kg, after treatment 15 min): 22.6 ± 1.3 s | Hot plate Licking latency (mice; pre-treat. physiological solution 10 ml/kg, after treatment 30 min): 22.5 ± 1.3 s | Hot plate Licking latency (mice; pre-treat. physiological solution 10 ml/kg, after treatment 45 min): 22.9 ± 1.6^ sec | Hot plate Licking latency (mice; pre-treat. physiological solution 10 ml/kg, before treatment): 21.8 ± 1.1 s | Hot plate Licking latency ([3]; pre-treat. AODN 3 nmol ICV, 24 hours after last injection, before treatment): 13.5 ± 0.8 s | Hot plate Licking latency ([3]; pre-treat. AODN 3 nmol ICV, after treatment 15 min): 16.6 ± 1.9 s | Hot plate Licking latency ([3]; pre-treat. AODN 3 nmol ICV, after treatment 30 min): 15.8 ± 1.8 s | Hot plate Licking latency ([3]; pre-treat. AODN 3 nmol ICV, after treatment 45 min): 15.8 ± 1.5 s | Hot plate Licking latency ([3]; pre-treat. dODN 3 nmol ICV, 24 hours after last injection, before treatment): 23.6 ± 1.1 s | Hot plate Licking latency ([3]; pre-treat. dODN 3 nmol ICV, after treatment 15 min): 22.6 ± 2.3 s | Hot plate Licking latency ([3]; pre-treat. dODN 3 nmol ICV, after treatment 30 min): 21.9 ± 1.5 s | Hot plate Licking latency ([3]; pre-treat. dODN 3 nmol ICV, after treatment 45 min): 22.3 ± 1.7 s
